{"source": "ChEMBL document CHEMBL3880442", "about": "“NHE3-binding compounds and methods for inhibiting phosphate transport” (2014)", "key": {"[1]": {"system": "Rattus norvegicus", "assay": "Effect on phosphate level in urine in Sprague-Dawley rat at 0.03 mg/kg administered via oral gavage measured after 16 hrs by gravimetric analysis relative to vehicle-treated control", "type": "functional"}, "[2]": {"system": "Rattus norvegicus", "assay": "Effect on sodium level in urine in Sprague-Dawley rat at 1 mg/kg administered via oral gavage measured after 16 hrs by gravimetric analysis relative to vehicle-treated control", "type": "functional"}, "[3]": {"assay": "Toxicity in Sprague-Dawley rat model of uremia-associated vascular calcification assessed as change in body weight in presence of calcitriol", "conditions": "in vivo"}, "[4]": {"system": "Rattus norvegicus", "assay": "Effect on sodium level in urine in Sprague-Dawley rat at 2 mg/kg administered via oral gavage measured after 16 hrs by gravimetric analysis relative to vehicle-treated control", "type": "functional"}, "[5]": {"system": "Rattus norvegicus", "assay": "Effect on phosphate level in urine in Sprague-Dawley rat at 2 mg/kg administered via oral gavage measured after 16 hrs by gravimetric analysis relative to vehicle-treated control", "type": "functional"}}}
{"molecule": "CN1Cc2c(Cl)cc(Cl)cc2[C@H](c2cccc(S(=O)(=O)NCCOCCOCCNC(=O)NCCCCNC(=O)NCCOCCOCCNS(=O)(=O)c3cccc([C@@H]4CN(C)Cc5c(Cl)cc(Cl)cc54)c3)c2)C1", "note": "[TENAPANOR]", "values": [{"measurement": "Activity", "setting": "[1]", "result": 80, "unit": "%"}]}
{"molecule": "CN1Cc2c(Cl)cc(Cl)cc2[C@H](c2cccc(S(=O)(=O)NCCOCCOCCNC(=O)NCCCCNC(=O)NCCOCCOCCNS(=O)(=O)c3cccc([C@@H]4CN(C)Cc5c(Cl)cc(Cl)cc54)c3)c2)C1.Cl.Cl", "note": "[TENAPANOR HYDROCHLORIDE]", "values": [{"measurement": "Activity", "setting": "[2]", "result": 11, "unit": "%"}, {"measurement": "Activity", "setting": "[3]", "result": "Non-Toxic"}]}
{"molecule": "CN1Cc2c(Cl)cc(Cl)cc2[C@H](c2cccc(S(=O)(=O)NCCOCCOCCNC(=O)CCC(CCC(=O)NCCOCCOCCNS(=O)(=O)c3cccc([C@@H]4CN(C)Cc5c(Cl)cc(Cl)cc54)c3)(CCC(=O)NCCOCCOCCNS(=O)(=O)c3cccc([C@@H]4CN(C)Cc5c(Cl)cc(Cl)cc54)c3)NC(=O)NCP(=O)(O)O)c2)C1", "values": [{"measurement": "Activity", "setting": "[4]", "result": 130, "unit": "%"}, {"measurement": "Activity", "setting": "[5]", "result": 50, "unit": "%"}]}
